Common to all, as to assay type: in vivo, human
Assay [1] has as its system Chinese patients with T2D. Nature of the assay: Homeostatic model assessment of insulin resistance (HOMA-IR). Conditions: 1.5 mg once weekly, n=6. The source says:
(§1) Exploratory outcomes included change from baseline in body weight, waist circumference, body-mass index (BMI) and change in homeostatic model assessment of β-cell function (HOMA-β) and insulin resistance (HOMA-IR).

The nature of the next assay: Body weight. To be noted: 1.5 mg once weekly; for Percent change from baseline in body weight, LS mean / Percent change from baseline in body weight, LS mean (SE): n=6. Here is the method:
as §1
(§2) The analyses for change from baseline in HbA1c, FPG, post-MTT glucose AUC0–4 h and body weight were performed using the mixed-effect model for repeated measures (MMRM) with least-squares means and standard error provided. The MMRM included the corresponding baseline value, treatment, visit and treatment-by-visit as fixed effects and patient as a random effect. Mean change or mean percent change from baseline were analysed using a restricted maximum likelihood (REML)‐based repeated measures approach in combination with the Newton Raphson Algorithm. The fix effect of visit was fitted as a repeated effect and an unstructured covariance matrix was used. In case of non-converge, matrix like Variance Components and Compound Symmetry will be tested in a subsequent order until model‐convergence is achieved. The Kenward-Roger degree of freedom was used in estimating fixed effects. No missing data imputation was conducted. For HbA1c, FPG and body weight, point estimate of treatment difference versus placebo and 90% CI were provided for each IBI362 dose group and the dulaglutide group, with nominal p values.

The test system of assay [2] is Chinese patients with T2D. Nature of the assay: Lipids (total cholesterol, LDL cholesterol, triglycerides). Conditions: Dulaglutide group; mean. Here is the method: Fig. S8: Change from baseline in lipids levels at week 12.
Data are plotted as means +/- SD. IBI362 3.0 mg n = 7; IBI362 4.5 mg n = 5; IBI362 6.0 mg n = 8; Pooled placebo n = 10; Dulaglutide n = 6. CFB = change from baseline; LDL = low density lipoprotein; SD = standard deviation. Source data are provided as a Source Data file.
Total cholesterol LDL cholesterol Triglycerides
CFB in lipids at week 12 (mmol/L),
(1 picture or pasted object on this page, not shown here) […]
Table 4 Routine laboratory safety assessments […]
Lipids Total cholesterol (TC), triglyceride (TG), high-density lipoprotein cholesterol (HDL-C), and low-density lipoprotein cholesterol (LDL-C). […]

The subject of assay [3] is Chinese patients with T2D. Nature of the assay: Mixed-meal tolerance test (MTT): plasma glucose and glucose AUC0-4 h. To be noted: 1.5 mg once weekly, n=6. How it is done:
(§3) HbA1c (2200101, Bio-Rad, USA), blood glucose (05168791190, Roche Diagnostics, Germany), insulin (12017547122, Roche Diagnostics, Germany), C peptide (03184897190, Roche Diagnostics, Germany), total GLP-1 (GLP-1 [7–36] amide and its metabolite, GLP-1 [9–36] amide, 10-1278-01, Mercodia AB, Sweden) and OXM (AL-139, AnshLabs, USA) tests were performed according to the manufactures’ instruction manuals in a central laboratory (KingMed Diagnostics, Guangzhou, China). HbA1c was measured using a Bio-rad D-100 Haemoglobin Testing System (Bio-rad). Blood glucose was measured using a Roche Cobas c702 analyser (Roche Diagnostics). Insulin and C peptide were measured using a Roche […] analyser (Roche Diagnostics). GLP-1 and OXM were measured using a Tecan Infinite M Plex microplate reader (TECAN).
(§4) Standard non-compartmental pharmacokinetics methods were used to analyze IBI362 plasma concentration data using Pkanalix 2020R1 (Lixoft, Antony, France). Secondary efficacy outcomes included change from baseline to week 12 in HbA1c, fasting plasma glucose (FPG), fasting insulin levels, change from baseline to week 12 in post-mixed-meal tolerance test (post-MTT) glucose, insulin, C peptide, GLP-1 and OXM levels, as well as seven-point self-measured blood glucose (SMBG) profile.
as §2, with “values. […]” for “values.”
3. Standard meal test (MTT) collection measures included: insulin, C-peptide, plasma glucose, glucagon, endogenous OXM, and endogenous GLP-1. The sampling points include: fasting, 30 min, 1h, 2h, 3h and 4h.
A total of 9 mL blood will be collected from each blood collection point. See the manual of the central laboratory for the detailed operation process. Fasting state refers to fasting for 10 hours. [ The standard meal is
instant noodles. The master Kang roast beef noodles (bucket noodles) purchased by the sponsor in a unified manner are removed from the oil bag. The noodles are soaked in boiled water and then removed. The seasoning
bag is added and mixed well. The time is counted from the first bite of eating. The noodles are eaten within 10 minutes, and 200 mL of water is drunk; or the instant noodles are directly opened with 200 mL of boiled
water to ensure that the noodles are eaten and the water or soup is drunk]. Visit days when MTT test is performed: 1 day prior to Cycle 1 administration, Day 80 (D80). […]
● Test by central laboratory

In assay [4] the test system is Chinese patients with T2D. Put plainly: Fasting plasma glucose (FPG). Conditions: 1.5 mg once weekly, MMRM. Here is the method: as §3, §4, §2

Values joined by “and” are separate entries in the source; they are usually repeats but may differ in a detail not shown here. Equal entries are not always repeated.

Take “Dulaglutide: open-label active reference, subcutaneously once weekly at a fixed dose of 1.5 mg [reference compound]”: the “Change from baseline to week 12 in HOMA-IR, mean” value in assay [1] was -1.5. For the same substance, the “Change from baseline to week 12 in HOMA-IR, individual” value in assay [1] (single patients) is 0.346 and 1.1 and -0.8 and -3.0 and -3.5. The “Percent change from baseline to week 12 in body weight, single patients” value in the assay “Body weight” (each line a single patient) is 1.8% and -0.6% and 0.5% and 1.3% and -0.126% and -7.2%. The “Percent change from baseline in body weight, LS mean” value is given as -0.2% in the assay “Body weight” (week 4, MMRM) and -0.8% in “Body weight” (week 8, MMRM). Further, the “Percent change from baseline in body weight, LS mean (SE)” value in “Body weight” (week 12, MMRM) was −0.9 (1.4) % and -0.9%; in the assay “Body weight” (week 12, MMRM, listed as dulaglutide), −0.9%. The “Body weight (percent CFB): ETD versus placebo, LS mean (90% CI)” value in the assay “Body weight” (week 12, MMRM) is listed as 0.2 ( −2.8, 3.1) %. The “Change from baseline to week 12 in LDL cholesterol” value in assay [2] is recorded as -0.32 mmol/L. Further, in assay [2], the “Change from baseline to week 12 in total cholesterol” value is recorded as -0.58 mmol/L. The “Change from baseline to week 12 in triglycerides” value in assay [2] was -0.58 mmol/L. Further, in assay [3] (MMRM), the “Percent change from baseline to week 12 in post-MTT glucose AUC0-4 h, LS mean” value was -41.70%. The “Glucose during MTT, mean” value in assay [3] (week 12, 0 min) is listed as 7.18 mmol/L; in assay [3] (week 12, 30 min), 9.32 mmol/L; in assay [3] (week 12, 60 min) it was 11.86 mmol/L; in assay [3] (week 12, 120 min), 9.62 mmol/L; in assay [3] (week 12, 180 min), 7.11 mmol/L; in assay [3] (week 12, 240 min), 6.79 mmol/L. Besides, the “Change from baseline in fasting plasma glucose, LS mean” value in assay [4] (week 4, n=6) is on record as -3.19 mmol/L; in assay [4] (week 8, n=6) it was -3.36 mmol/L. Further, the “Change from baseline in fasting plasma glucose, LS mean (SE)” value in assay [4] (week 12, n=6) was -3.85 mmol/L. Moreover, in assay [4] (week 12), the “Fasting plasma glucose: ETD versus placebo, LS mean (90% CI)” value was -1.32 mmol/L.

For the origin of these results see PMC9232612, “A phase 1b randomised controlled trial of a glucagon-like peptide-1 and glucagon receptor dual agonist IBI362 (LY3305677) in Chinese patients with type 2 diabetes” (Nature Communications, 2022).
